Assay results from patent US20230149919A1, “CASSETTE FOR PRESERVATION OF NATURAL AND BIOENGINEERED TISSUES” (TISSUE TESTING TECHNOLOGIES LLC, priority 2021, published 2023).

Tested on: Epiderm construct
Test: Viability of constructs with additives in culture medium before and after vitrification
Type: cell-based, Human
Conditions: added to culture medium before and after vitrification, αT and QVD together
Description: Resazurin Assay: Was used to measure the metabolic activity and has the advantage of being non-toxic so constructs can be assessed before and several times after treatment. Resazurin dye (alamarBlue) was used to assess cell viability by measuring the oxidation/reduction reactions that take place within cells. The dye is added directly to the culture wells and the plates were incubated for 3 hours at 37° C. Upon reduction, the dye changes color and this was measured and quantified using a fluorescent microplate reader at an excitation wavelength of 544 nm and an emission wavelength of 590 nm.
The initial vitrification protocol was one that was developed for use with vein segments and rings. The process uses a 6 step (15-minute incubation) protocol to add the cryoprotectant (CPA) solution into the construct. The insert is then left in a glass scintillation vial in 1.5 mL vitrification solution with 0.3 mL solution inside the insert. The vials are cooled rapidly to −100° C. then slowly cooled to −135° C. where they are stored until rewarming. During rewarming, the samples are warmed slowly to −100° C. then rapidly to room temperature. The vitrification solution is removed using 7 sequential removal steps at 15 minutes each (FIG. 4, original protocol). Several changes were made to this protocol to produce better and sustainable viability for the Epiderm construct.
A series of changes were made to how the vitrification solution was loaded and unloaded from the construct. These changes included shorter incubation steps (5 minutes instead of 15), using a lower concentration of cryoprotectant to load the full-strength vitrification solution into the construct and also a more mechanical change that involved dilution of the full strength vitrification solution to half its concentration by a simple dilution step as opposed to removal from one solution to the next. This shortened the amount of time that the construct was exposed to the full-strength vitrification solution reducing potential cytotoxicity caused by exposure to the vitrification solution (modified protocol).
The arrived at protocol starts with an overnight incubation with αT and QVD. The next day, the constructs are vitrified using the 6-step addition protocol, 5 minutes each step, to add the cryoprotectant (CPA) solution into the construct. The insert is then left in the final vitrification solution with 0.3 mL solution inside the insert. The vials are cooled rapidly to −100° C. then slowly cooled to −135° C. where they are stored until rewarming. During rewarming, the samples are warmed slowly to −100° C. then rapidly to room temperature. The vitrification solution is removed using 7 sequential removal steps at 5 minutes each. […]

SMILES	Effect of additive on construct viability	Effect of additive on construct viability (listed as αT)	Effect of additive on construct viability (listed as QVD)
Cc1c(C)c2c(c(C)c1O)CC[C@@](C)(CCC[C@H](C)CCC[C@H](C)CCCC(C)C)O2 [α-tocopherol]	improved viability	significant improvement	–
CC(C)[C@H](NC(=O)c1ccc2ccccc2n1)C(=O)N[C@@H](CC(=O)O)C(=O)COc1c(F)cccc1F [Q-VD-OPH, quinoline-Val-Asp-difluorophenoxymethyl ketone]	improved viability	–	significant improvement
